For 22 molecules, melting point results are on record in patent US7855297B2, “Amide derivatives and medicinal use thereof” (Mitsubishi Tanabe Pharma Corporation, priority 2000, dated 2010).

Each structure is given as a SMILES string. Where a name gives a salt, the structure may show the parent alone.

Broadly, the melting point is the temperature of the solid-liquid transition.

For the molecule `COc1ccc2c(c1)C(C(=O)N(Cc1ccc(N(C)C)nc1)c1ccc(C(C)C)cc1)CCC2` (stereo not shown) (as salt: hydrochloride) (hydrate or solvate) [Example 55, N-[(6-dimethylaminopyridin-3-yl)methyl]-N-(4-isopropylphenyl)-7-methoxy-1,2,3,4-tetrahydronaphthalene-1-carboxamide hydrochloride ½ hydrate], the melting point was in the range of 158 to 160 °C.

Turning to `COc1ccc(CN(C(=O)C2CCCc3ccc(OC)cc32)c2ccc(C(C)C)cc2)nc1` (stereo not shown) (as salt: hydrochloride) (hydrate or solvate) [Example 56, N-(4-isopropylphenyl)-N-[(5-methoxypyridin-2-yl)methyl]-7-methoxy-1,2,3,4-tetrahydronaphthalene-1-carboxamide hydrochloride ½ hydrate], the melting point fell in the range of 108 to 110 °C.

As for `COc1ccc(N(Cc2ccc(N(C)C)cc2)C(=O)C2CCCc3ccc(F)cc32)cc1` (stereo not shown) (as salt: hydrochloride) (hydrate or solvate) [Example 128, N-[(4-dimethylaminophenyl)methyl]-7-fluoro-N-(4-methoxyphenyl)-1,2,3,4-tetrahydronaphthalene-1-carboxamide hydrochloride ½ hydrate], the melting point is 125.4 °C.

`COc1ccc2c(c1)C(C(=O)N(Cc1ccc(OC)nc1)c1ccc(C(C)C)cc1)CCC2` (stereo not shown) (as salt: hydrochloride) [Example 46, N-(4-isopropylphenyl)-N-[(6-methoxypyridin-3-yl)methyl]-7-methoxy-1,2,3,4-tetrahydronaphthalene-1-carboxamide monohydrochloride] showed a melting point of 114 to 117 °C.

Molecule `CC(C)c1ccc(N(Cc2ccc(N(C)C)cc2)C(=O)C2CCCc3ccc(F)cc32)cc1` (stereo not shown) (as salt: hydrochloride) [Example 127, N-[(4-dimethylaminophenyl)methyl]-7-fluoro-N-(4-isopropylphenyl)-1,2,3,4-tetrahydronaphthalene-1-carboxamide hydrochloride] had a melting point of 165.6 °C.

The molecule `COc1ccc2c(c1)C(C(=O)N(Cc1ccc(N(C)C)cc1)c1ccc(Br)cc1)CCC2` (stereo not shown) (as salt: hydrochloride) [Example 200, N-(4-bromophenyl)-N-[(4-dimethylaminophenyl)methyl]-7-methoxy-1,2,3,4-tetrahydronaphthalene-1-carboxamide hydrochloride] came in with a melting point of 104 to 113 °C.

In the case of `CC(C)c1ccc(N(Cc2ccc(N(C)C)cc2)C(=O)C2CCCc3c(OCCN(C)C)cccc32)cc1` (stereo not shown) (as salt: oxalate) (hydrate or solvate) [Example 113, 5-[2-(dimethylamino)ethoxy]-N-[(4-dimethylaminophenyl)methyl]-N-(4-isopropylphenyl)-1,2,3,4-tetrahydronaphthalene-1-carboxamide oxalate ¼ hydrate], the melting point was 155.7 °C.

In turn, `CCn1cc(CN(C(=O)C2CCCc3c(OCCCN(C)C)cccc32)c2ccc(C(C)C)cc2)cn1` (stereo not shown) (as salt: oxalate) [Example 267, 5-[3-(dimethylamino)propoxy]-N-[(1-ethylpyrazol-4-yl)methyl]-N-(4-isopropylphenyl)-1,2,3,4-tetrahydronaphthalene-1-carboxamide 3/2 oxalate] returned a melting point of 142.6 °C.

In turn, `CC(C)c1ccc(N(Cc2ccc(N(C)C)cc2)C(=O)C2CCCc3cc(OCCN(C)C)ccc32)cc1` (stereo not shown) (hydrate or solvate) [Example 106, 6-[2-(dimethylamino)ethoxy]-N-[(4-dimethylaminophenyl)methyl]-N-(4-isopropylphenyl)-1,2,3,4-tetrahydronaphthalene-1-carboxamide ⅕ hydrate] registered a melting point of 132.6 °C.

`CCc1ccc(N(Cc2ccc(N(C)C)cc2)C(=O)C2CCCc3ccccc32)cc1` (stereo not shown) [Example 1, N-[(4-dimethylaminophenyl)methyl]-N-(4-ethylphenyl)-1,2,3,4-tetrahydronaphthalene-1-carboxamide] registered a melting point of 109 to 110 °C.

On to `CC(C)COc1ccc(Br)cc1N(Cc1ccc(N(C)C)cc1)C(=O)C1CCCc2ccccc21` (stereo not shown) [Example 5, N-(5-bromo-2-isobutoxyphenyl)-N-[(4-dimethylaminophenyl)methyl]-1,2,3,4-tetrahydronaphthalene-1-carboxamide], for which the melting point is 176 to 178 °C.

`CC(C)c1ccc(N(Cc2ccc(N(C)C)cc2)C(=O)C2CCCc3c(O)cccc32)cc1` (stereo not shown) [Example 17, N-[(4-dimethylaminophenyl)methyl]-5-hydroxy-N-(4-isopropylphenyl)-1,2,3,4-tetrahydronaphthalene-1-carboxamide] gave a melting point of 200 to 202 °C.

For the molecule `CC(C)c1ccc(N(Cc2ccc(N(C)C)cc2)C(=O)C2CCCc3ccc(O)cc32)cc1` (stereo not shown) [Example 20, N-[(4-dimethylaminophenyl)methyl]-7-hydroxy-N-(4-isopropylphenyl)-1,2,3,4-tetrahydronaphthalene-1-carboxamide], the melting point was 214 to 217 °C.

In the case of `COc1ccc2c(c1)C(C(=O)N(Cc1ccc(S(C)(=O)=O)cc1)c1ccc(C(C)C)cc1)CCC2` (stereo not shown) [Example 35, N-(4-isopropylphenyl)-N-[(4-methylsulfonylphenyl)methyl]-7-methoxy-1,2,3,4-tetrahydronaphthalene-1-carboxamide], the melting point lay in the range of 131 to 132 °C.

Turning to `CC(C)c1ccc(N(Cc2ccc(N(C)C)cc2)C(=O)C2CCCc3cc(O)ccc32)cc1` (stereo not shown) [Example 37, N-[(4-dimethylaminophenyl)methyl]-6-hydroxy-N-(4-isopropylphenyl)-1,2,3,4-tetrahydronaphthalene-1-carboxamide], the melting point was 169 to 171 °C.

Regarding `CC(C)c1ccc(N(Cc2ccc(N(C)C)cc2)C(=S)C2CCCc3ccccc32)cc1` (stereo not shown) [Example 54, N-[(4-dimethylaminophenyl)methyl]-N-(4-isopropylphenyl)-1,2,3,4-tetrahydronaphthalene-1-carbothioamide], the melting point fell in the range of 123 to 125 °C.

The molecule `COc1ccc2c(c1)C(C(=O)N(Cc1ccc(CO)cc1)c1ccc(C(C)C)cc1)CCC2` (stereo not shown) [Example 95, N-{[4-(hydroxymethyl)phenyl]methyl}-N-(4-isopropylphenyl)-7-methoxy-1,2,3,4-tetrahydronaphthalene-1-carboxamide] returned a melting point of 143.2 °C.

Turning to `COc1ccc(CN(C(=O)C2CCCc3c(O)cccc32)c2ccc(C(C)C)nc2)c(OC)n1` (stereo not shown) [Example 133, N-[(2,6-dimethoxypyridin-3-yl)methyl]-5-hydroxy-N-(6-isopropylpyridin-3-yl)-1,2,3,4-tetrahydronaphthalene-1-carboxamide], the melting point amounted to 164 °C.

The molecule `COc1ccc2c(c1)C(C(=O)N(Cc1ccc(N)cc1)c1ccc(C(C)C)cc1)CCC2` (stereo not shown) [Example 167, N-[(4-aminophenyl)methyl]-N-(4-isopropylphenyl)-7-methoxy-1,2,3,4-tetrahydronaphthalene-1-carboxamide] yielded a melting point of 115 to 117 °C.

Molecule `CC(C)c1ccc(N(Cc2cnn(CCN(C)C)c2)C(=O)C2CCCc3c(O)cccc32)cc1` (stereo not shown) [Example 355, N-({1-[2-(dimethylamino)ethyl]pyrazol-4-yl}methyl)-5-hydroxy-N-(4-isopropylphenyl)-1,2,3,4-tetrahydronaphthalene-1-carboxamide] showed a melting point of 92 °C.

`CC(C)c1ccc(N(Cc2cnn(CCO)c2)C(=O)C2CCCc3c(O)cccc32)cc1` (stereo not shown) [Example 362, 5-hydroxy-N-{[1-(2-hydroxyethyl)pyrazol-4-yl]methyl}-N-(4-isopropylphenyl)-1,2,3,4-tetrahydronaphthalene-1-carboxamide] had a melting point of 110 to 114 °C.

Molecule `CC(C)c1ccc(N(Cc2cnn(CC(F)(F)F)c2)C(=O)C2CCCc3c(O)cccc32)cn1` (stereo not shown) [Example 435, 5-hydroxy-N-(6-isopropylpyridin-3-yl)-N-{[1-(2,2,2-trifluoroethyl)pyrazol-4-yl]methyl}-1,2,3,4-tetrahydronaphthalene-1-carboxamide] yielded a melting point of 127.7 °C.
